Where a SMILES comes first, the peptide text is derived from it. [ ]: non-standard residue; d: D form.
What was measured:
FPRL1 [1] = biological target: T1, FPRL1 (Homo sapiens, UniProt P25090); test: [Ca2+]i increase in FPRL1-expressing RBL-2H3 cells (fura-2); format: cell-based
T1 construct: expressed in transfected cells; host or cells: RBL-2H3 (rat basophilic leukemia) cells, G418-selected
T1 sequence (P25090 1-351): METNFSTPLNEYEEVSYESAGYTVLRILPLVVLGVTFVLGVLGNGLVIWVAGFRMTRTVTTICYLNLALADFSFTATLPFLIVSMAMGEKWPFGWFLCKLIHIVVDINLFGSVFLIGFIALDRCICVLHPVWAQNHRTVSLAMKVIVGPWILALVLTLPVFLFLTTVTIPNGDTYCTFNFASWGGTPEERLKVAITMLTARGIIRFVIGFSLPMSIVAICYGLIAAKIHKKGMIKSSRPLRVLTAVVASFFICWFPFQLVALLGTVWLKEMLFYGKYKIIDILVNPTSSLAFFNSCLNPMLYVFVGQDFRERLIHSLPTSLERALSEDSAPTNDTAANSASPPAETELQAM

CT26, colon carcinoma = test: Tumor growth in CT26-injected Balb/c mice; format: in vivo; settings: FIGS. 9A and 9B
Protocol: CT26, EL4 were maintained at 37° C. in a humidified 5% CO2 atmosphere in RPMA1640 medium supplemented with 20% (vol/vol) heat-inactivated fetal bovine serum. For animal experiments, the cells were passaged two to five times after re-growth from frozen stocks. Log phase CT26 cells were detached from tissue culture flasks with 0.25% trypsin and 0.03% EDTA. CT26 and EL4 were washed and resuspended in PBS immediately before injection.
In order to assess the antitumor effect of immuno-modulating peptide, Trp-Arg-Tyr-Met-Val-D-Met-CONH2, (WRYMVm; (SEQ ID NO: 4)), CT26, colon carcinoma was tested in Balb/c mice model. Tumor mass was measured in size every two days after 6 days from tumor cell inoculation.
To find the effective tumor-suppressing dose of WRYMVm, 0.1 μg/mouse, 0.25 μg/mouse, and 1 μg/mouse of WRYMVm were administered to CT26/Balb/c model. […] A similar phenomenon is easily found in chemotactic migration of leukocytes. In view of the fact that FPRL1, which is a target receptor for WRYMVm, is related to the chemotactic migration event, it is concluded that WRYMVm-induced antitumor effect might be derived from leukocyte infiltration event. Therefore, it is quite necessary to reveal the direct relationship between the WRYMVm-induced antitumor effect and the leukocyte infiltration event.

FPRL1 [2] = biological target: T1, FPRL1; test: ERK phosphorylation in FPRL1-expressing RBL-2H3 cells (immunoblot); format: cell-based
Protocol: Cultured RBL-2H3 cells were aliquoted into 2×10^6 cells and stimulated with the indicated concentrations of WKYMVm and the peptides of the present invention for the indicated lengths of time. FPR- or FPRL1-expressing RBL-2H3 cells were stimulated with 1 μM WKYMVm for various periods of time (FIG. 3A). Two cells were preincubated with a vehicle or 100 ng/ml of PTX (24 hr), 50 μM of LY294002 (15 min), 5 μM of GFX (15 min), 10 μM BAPTA/AM (60 min), or 50 μM PD98059 (60 min) prior to 1 μM of WKYMVm treatment (FIG. 3B). FPR- or FPRL1-expressing RBL2H3 cells were stimulated with 10 μM of the peptides of the present invention for 2 min or 5 min, respectively (FIG. 3C).
After stimulation, the cells were washed with serum-free RPMI and lysed in a lysis buffer (20 mM Hepes, pH 7.2, 10% glycerol, 150 mM NaCl, 1% Triton X-100, 50 mM NaF, 1 mM Na3VO4, 10 μg/ml leupeptin, 10 μg/ml aprotinin, and 1 mM phenylmethylsulfonyl fluoride). The detergent-insoluble materials were pelleted by centrifugation (12,000×g, 15 min, at 4° C.), and the soluble supernatant fraction was removed and stored at −80° C. or used immediately. Protein concentrations in the lysates were determined using the Bradford protein assay reagent.
Each sample ([…] of protein) was subjected to 10% SDS-PAGE and phosphorylated ERK was determined by an immunoblot analysis with an anti-phospho-ERK antibody. Protein samples were prepared for electrophoresis by addition of a concentrated sample buffer. The portions in the samples were then separated by an 10% SDS-polyacrylamide gel using the buffer system described by Laemmli (17).
Following the electrophoresis, a western blot analysis with an anti-ERK2 antibody was performed to confirm that the same amounts of samples were used for the experiments. The proteins were blotted onto nitrocellulose membranes. The nitrocellulose membranes were then blocked by incubation with TBS (Tris-buffered saline, 0.05% Tween-20) containing 5% non-fat dry milk. Subsequently, the membranes were incubated with anti-phospho-ERK antibody, anti-phospho-Akt antibody or anti-Akt antibody washed with TBS. For a PKC translocation assay, an antibody for PKC isozyme-specific was incubated. Antigen-antibody complexes were visualized after incubating the membrane with a 1:5000 diluted goat anti-rabbit IgG or goat anti-mouse IgG antibody coupled to horseradish peroxidase and using the enhanced chemiluminescence detection system.

## CSCC[C@H](NC(=O)CNC(=O)[C@H](CCCCN)NC(=O)[C@@H](N)Cc1c[nH]c2ccccc12)C(=O)N[C@H](C(=O)N[C@H](CCSC)C(N)=O)C(C)C [WKGMVm-NH2, Trp-Lys-Gly-Met-Val-D-Met-NH2] (H-WKGMV[dM]-NH2; N-terminus assumed)
FPRL1 [1]
  [Ca^2+]i increasing activity: showed [Ca^2+]i-increasing activity in FPRL1 cells, with a little lower affinity to FPRL1

## CSCC[C@H](NC(=O)[C@H](CCCNC(=N)N)NC(=O)[C@H](CCCCN)NC(=O)[C@@H](N)Cc1c[nH]c2ccccc12)C(=O)N[C@H](C(=O)N[C@H](CCSC)C(N)=O)C(C)C [WKRMVm-NH2, Trp-Lys-Arg-Met-Val-D-Met-NH2] (H-WKRMV[dM]-NH2; N-terminus assumed)
CT26, colon carcinoma
  tumor growth in CT26-injected mice (figure legend): attenuates tumor growth

## CSCC[C@H](NC(=O)[C@H](Cc1ccc(O)cc1)NC(=O)[C@H](CCCCN)NC(=O)[C@@H](N)Cc1c[nH]c2ccccc12)C(=O)N[C@H](C(=O)N[C@H](CCSC)C(N)=O)C(C)C [WKYMVm-NH2, Trp-Lys-Tyr-Met-Val-D-Met-NH2, reference compound]
FPRL1 [1]; data not shown
  concentration showing maximal [Ca^2+]i increase activity: 10 nM
FPRL1 [1]; fura-2 loaded
  EC50 (nM), intracellular calcium increase: inactive
FPRL1 [2]; 1 μM WKYMVm
  time of maximal ERKs activity after peptide treatment: 5 min
FPRL1 [2]; 10 μM peptides 5 min (WKYMVm time course 1 μM)
  ERKs phosphorylation/activation: induced transient activation of ERKs
